Measurements as given in US20240148820A1 (priority 2021, published 2024).
Where no end group is shown, it is not given here.

Molecular target: S protein of SARS-CoV-2 (Severe acute respiratory syndrome coronavirus 2, UniProt P0DTC2)
Type: binding

IPLRGAFINGRWDSQCHRFS [U5]
effect of U5 on P9R binding to S protein: not P9R binding to S protein
